According to ChEMBL document CHEMBL1201862, “PubChem BioAssay data set” (2004):
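Assay format: 96-well plates, 48-hour exposure. The concentration for 50% growth inhibition is given as GI50.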 Active and inactive are the calls of the source. No stated cut-off is given here; in the data, active = GI50 up to about 1.1 µM and inactive = higher.

Tests used:
Assay in all cases: NCI anticancer screen, dose series, 48 h
[1] = test system: OVCAR-3
[2] = test system: COLO 205
[3] = test system: HOP-62
[4] = test system: U-251
[5] = test system: MDA-MB-231
[6] = test system: SF-295
[7] = test system: SNB-19
[8] = test system: NCI-H522
[9] = test system: K562
[10] = test system: T47D
[11] = test system: M14
[12] = test system: OVCAR-5
[13] = test system: MOLT-4
[14] = test system: SK-MEL-5
[15] = test system: Malme-3M
[16] = test system: SK-MEL-2
[17] = test system: RPMI-8226
[18] = test system: SN12C
[19] = test system: CAKI-1
[20] = test system: TK-10
[21] = test system: NCI/ADR-RES
[22] = test system: HCC 2998
[23] = test system: SW-620
[24] = test system: UACC-257
[25] = test system: DU-145
[26] = test system: HL-60
[27] = test system: LOX IMVI
[28] = test system: MCF7
[29] = test system: SR
[30] = test system: NCI-H23
[31] = test system: A498
[32] = test system: KM12
[33] = test system: NCI-H226
[34] = test system: OVCAR-4
[35] = test system: HCT-116
[36] = test system: UACC-62
[37] = test system: CCRF-CEM
[38] = test system: MDA-MB-435
[39] = test system: SK-OV-3
[40] = test system: ACHN
[41] = test system: IGROV-1
[42] = test system: SK-MEL-28
[43] = test system: SNB-75
[44] = test system: SF-268
[45] = test system: NCI-H460
[46] = test system: Hs-578T
[47] = test system: UO-31
[48] = test system: RXF 393
[49] = test system: PC-3
[50] = test system: EKVX
[51] = test system: A549
[52] = test system: HT-29
[53] = test system: SF-539
[54] = test system: MDA-N
[55] = test system: HOP-92
[56] = test system: 786-0
[57] = test system: HCT-15
[58] = test system: OVCAR-8

COCCOCc1nc(C#N)c(N)o1
GI50 [1]: > 100 µM (inactive) | GI50 [2]: > 100 µM (inactive) | GI50 [3]: > 100 µM (inactive) | GI50 [4]: > 100 µM (inactive) | GI50 [5]: > 100 µM (inactive) | GI50 [6]: > 100 µM (inactive) | GI50 [7]: > 100 µM (inactive) | GI50 [8]: > 10 µM (inactive) | GI50 [9]: > 100 µM (inactive) | GI50 [10]: > 100 µM (inactive) | GI50 [11]: > 100 µM (inactive) | GI50 [12]: > 100 µM (inactive) | GI50 [13]: > 100 µM (inactive) | GI50 [14]: > 100 µM (inactive) | GI50 [15]: > 100 µM (inactive) | GI50 [16]: > 100 µM (inactive) | GI50 [17]: > 100 µM (inactive) | GI50 [18]: > 100 µM (inactive) | GI50 [19]: > 100 µM (inactive) | GI50 [20]: > 100 µM (inactive) | GI50 [21]: > 100 µM (inactive) | GI50 [22]: > 100 µM (inactive) | GI50 [23]: > 100 µM (inactive) | GI50 [24]: > 100 µM (inactive) | GI50 [25]: > 100 µM (inactive) | GI50 [26]: > 100 µM (inactive) | GI50 [27]: > 100 µM (inactive) | GI50 [28]: > 100 µM (inactive) | GI50 [29]: > 100 µM (inactive) | GI50 [30]: > 100 µM (inactive) | GI50 [31]: > 100 µM (inactive) | GI50 [32]: > 100 µM (inactive) | GI50 [33]: > 100 µM (inactive) | GI50 [34]: > 100 µM (inactive) | GI50 [35]: > 100 µM (inactive) | GI50 [36]: > 100 µM (inactive) | GI50 [37]: > 100 µM (inactive) | GI50 [38]: > 100 µM (inactive) | GI50 [39]: > 100 µM (inactive) | GI50 [40]: > 100 µM (inactive) | GI50 [41]: > 100 µM (inactive) | GI50 [42]: > 100 µM (inactive) | GI50 [43]: > 100 µM (inactive) | GI50 [44]: > 100 µM (inactive) | GI50 [45]: > 100 µM (inactive) | GI50 [46]: > 100 µM (inactive) | GI50 [47]: > 100 µM (inactive) | GI50 [48]: > 100 µM (inactive) | GI50 [49]: > 100 µM (inactive) | GI50 [50]: > 100 µM (inactive) | GI50 [51]: > 100 µM (inactive) | GI50 [52]: > 100 µM (inactive) | GI50 [53]: > 100 µM (inactive) | GI50 [54]: > 100 µM (inactive) | GI50 [55]: > 100 µM (inactive) | GI50 [56]: > 100 µM (inactive) | GI50 [57]: > 100 µM

O=C1NC(=O)C23C(=O)NC(=O)C12C1C=CC3CC1 (centres undefined)
GI50 [1]: > 10 µM (inactive) | GI50 [2]: > 10 µM (inactive) | GI50 [3]: > 10 µM (inactive) | GI50 [4]: > 10 µM (inactive) | GI50 [5]: > 10 µM (inactive) | GI50 [6]: > 10 µM (inactive) | GI50 [7]: > 10 µM (inactive) | GI50 [8]: > 10 µM (inactive) | GI50 [9]: > 10 µM (inactive) | GI50 [10]: > 10 µM (inactive) | GI50 [11]: > 10 µM (inactive) | GI50 [13]: > 10 µM (inactive) | GI50 [14]: > 10 µM (inactive) | GI50 [15]: > 10 µM (inactive) | GI50 [16]: > 10 µM (inactive) | GI50 [17]: > 10 µM (inactive) | GI50 [18]: > 10 µM (inactive) | GI50 [19]: > 10 µM (inactive) | GI50 [20]: > 10 µM (inactive) | GI50 [21]: > 10 µM (inactive) | GI50 [22]: > 10 µM (inactive) | GI50 [23]: > 10 µM (inactive) | GI50 [24]: > 10 µM (inactive) | GI50 [25]: > 10 µM (inactive) | GI50 [26]: > 10 µM (inactive) | GI50 [27]: > 10 µM (inactive) | GI50 [28]: > 10 µM (inactive) | GI50 [29]: > 10 µM (inactive) | GI50 [30]: > 10 µM (inactive) | GI50 [31]: > 10 µM (inactive) | GI50 [32]: > 10 µM (inactive) | GI50 [33]: > 10 µM (inactive) | GI50 [34]: > 10 µM (inactive) | GI50 [35]: > 10 µM (inactive) | GI50 [36]: > 10 µM (inactive) | GI50 [37]: > 10 µM (inactive) | GI50 [38]: > 10 µM (inactive) | GI50 [39]: > 10 µM (inactive) | GI50 [40]: > 10 µM (inactive) | GI50 [41]: > 10 µM (inactive) | GI50 [42]: > 10 µM (inactive) | GI50 [43]: > 10 µM (inactive) | GI50 [44]: > 10 µM (inactive) | GI50 [45]: > 10 µM (inactive) | GI50 [46]: > 10 µM (inactive) | GI50 [47]: > 10 µM (inactive) | GI50 [48]: > 10 µM (inactive) | GI50 [49]: > 10 µM (inactive) | GI50 [50]: > 10 µM (inactive) | GI50 [58]: > 10 µM (inactive) | GI50 [51]: > 10 µM (inactive) | GI50 [52]: > 10 µM (inactive) | GI50 [53]: > 10 µM (inactive) | GI50 [54]: > 10 µM (inactive) | GI50 [55]: > 10 µM (inactive) | GI50 [56]: > 10 µM (inactive) | GI50 [57]: > 10 µM
